Results reported in patent publication USRE44971E1, “Method for selection of transformed cells” (priority 2006, dated 2014).

Experiments:
[1] = system: soybean explants inoculated with Agrobacterium harboring pMON73691 (DMO and GFP genes); test: Selection of pMON73691-inoculated soybean explants with 2,4-D or dicamba in liquid medium, GFP+ buds; assay type: cell-based; details: selective agent 0.01 mg/L; 375 explants inoculated; pMON73691
Procedure: Freshly isolated soybean explants (mature embryo axes without cotyledons) were inoculated with Agrobacterium strain ABI harboring pMON73691 (containing DMO and GFP genes). After 3-d co-culture with Agrobacterium at 23° C. and a photoperiod of 16-h light and 8-h dark, the explants were cultured in liquid delay medium which contained modified woody plant medium supplemented with 5 mg/l BAP, 200 mg/l carbenicillin, 200 mg/l cefotaxime and 100 mg/l ticarcillin. The explants were in the delay medium for 4 days. They were then transferred to liquid selection medium in PLANTCONs. The selection medium was the same as the delay medium except of addition of various levels of 2,4-D (0.01, 0.1, 1.0 or 2.0 mg/L) or 0.01 mg/L dicamba as shown in Table 9 below. Each PLANTCON contained 60 ml of the selection medium and one piece of foam sponge with 5 slits. Twenty-five explants were evenly inserted into the slits. The cultures were maintained at 28° C. and a photoperiod of 16-h light and 8-h dark, and were examined periodically under a […] equipped for detecting GFP expressing tissues.

[2] = system: soybean cells transformed with pMON73691
Procedure: Mature seeds of soybean [Glycine max (L.) Merrill] cv. A3525 were imbibed, sterilized, and germinated at room temperature as set forth below. Other examples of soybean genotypes that can readily be used include, but are not limited to, Jack, Williams, Bert, Thorne, Granite, Lambert, Chapman, and Kunitz. Briefly, dry seeds (about 770 g) were soaked for 3 min in 2 L of 200 ppm sodium hypochlorite solution made from commercially available Clorox. The solution was drained and the seeds were set side for about 2 h. About 2 L of bean sterilization/germination medium was then added to the seeds. After about 9-10 h, seeds were ready for hand excision of explants. The bean germination medium contained the following in mg/L—NH4NO3: 240, KNO3: 505, CaCl2.2H2O: 176, MgSO4.7H2O: 493, KH2PO4: 27, H3BO3: 1.86, Na2MoO4.2H2O: 0.216, MnSO4.H2O: 5.07, ZnSO4. 7H2O: 2.58, FeSO4.7H2O: 2.502, KI: 0.249, Na2EDTA. 2H2O: 3.348, CuSO4.5H2O: 0.0008, CoCl2.6H2O: 0.0008, B1: 1.34, B3: 0.5, B6: 0.82, Bravo (75% WP; Diamond Shamrock Company, Cleveland, Ohio): 30, Captan (50% WP; Micro Flo Company, Lakeland, Fla.): 30, Cefotaxime: 125, and Sucrose: 25000, pH 5.8).
The binary vectors described above were mobilized into disarmed Agrobacterium tumefaciens strain C58 (ABI). Agrobacterium inoculum for infection was prepared as follows: 250 ml of LB medium (Luria-Bertani; Difco, Detroit, Mich.) containing 50 mg/l kanamycin (Sigma, St. Louis, Mo.) and 75 mg/l spectinomycin (Sigma, St. Louis, Mo.) was inoculated with 0.5 ml of Agrobacterium stock in glycerol (Acros Organics, Geel, Belgium) and was shaken at 200 rpm at 28° C. for approximately 20-22 h until the OD660 reached 0.8 to 1.0. The Agrobacterium broth was then centrifuged for 25 min at 3500 rpm (about 3565 g) at 2-4° C. After removing the supernatant, the Agrobacterium pellet was re-suspended in inoculation medium containing ⅖× of the macro nutrients, 1/10× of the micro nutrients and vitamins of Gamborg's B5 medium, supplemented with 3.9 g/l MES (Sigma, St. Louis, Mo.), and 30 g/l glucose (PhytoTechnology Laboratories, Shawnee Mission, Kans.), pH 5.4. Lipoic acid (Sigma, St. Louis, Mo.) was added to the Agrobacterium suspension to a final concentration of 0.25 mM after the density of the Agrobacterium cell suspension was adjusted to an OD660 of 0.30 to 0.35.
Agrobacterium-infection and co-cultivation of the explants were conducted as follows: about 100 excised explants were dispensed into the lid of a sterile plastic culture vessel PLANTCON (MP Biomedicals, LLC, Irvine, Calif.). Five ml of Agrobacterium inoculum was added to the explants in each PLANTCON lid. The explants were then sonicated for 20 sec in a sonicator (Ultrasonic Multi Cleaner, Model W-113, Honda, Japan). One piece of Whatmann #1 filter paper (Whatman Inc., Clifton, N.J.) cut to the size of the PLANTCON bottom was placed in the bottom part of the PLANTCON. The explants were transferred from the lid onto the filter paper with the Agrobacterium inoculum. The PLANTCON s were then incubated in a Percival incubator at 16 h light (at about 85-90 μE) and 8 h dark photoperiod and at 23° C. for 2 to 4 d for co-cultivation.
After a co-cultivation period of 2-4 days, explants were first cultured on a medium without dicamba (delay medium) for 3-5 d before being transferred to the selection medium with dicamba. Until transfer from delay medium to selection medium, the explants were kept in the same PLANTCON used for co-cultivation, but 10 or 12 ml of the delay medium was added to each PLANTCON. Alternatively, the explants were transferred to new PLANTCONs, each containing one piece of autoclaved felt (Jo-Ann Fabrics & Crafts, Madison, Wis.)) and 30 ml of the delay medium.

[3] = system: Wild type Arabidopsis var. Columbia; details: 1.0 mg/L in the culture medium; FIG. 8
Procedure: The susceptibility of Arabidopsis to different levels of dicamba was first tested. Wild type Arabidopsis var. Columbia seeds were plated on plant tissue culture medium containing various levels of dicamba. […] Arabidopsis plants were then transformed with the constructs containing DMO polynucleotides using the floral dip method (Clough and Bent, 1998). R1 seeds were plated on the culture medium containing up to 4 mg/L of dicamba.

## COc1c(Cl)ccc(Cl)c1C(=O)O [dicamba, 3,6-dichloro-o-anisic acid]
[1]
  # Explants w/GFP + buds/young shoots at 48DAI: 28
[2]; 0.01 mg/l in selection medium, from 800 explants, pMON73691
  dicamba-tolerant shoots harvested: 30
[2]; 0.02 mg/l in selection medium, pMON73691
  tolerant shoots harvested: few tolerant shoots were harvested
[2]; 0.05 or 0.1 mg/l in selection medium, pMON73691
  tolerant shoots obtained: no tolerant shoots were obtained
[2]; of 30 shoots selected on 0.01 mg/l
  tolerant shoots that formed roots on rooting medium and were transferred to soil: Twelve
[2]; of ten tested, selected on 0.01 mg/l
  plants positive for DMO-encoding polynucleotides: seven
[2]; soybean explants, pMON73691
  concentration most efficacious for selecting dicamba-tolerant shoots: ≤ 0.01 mg/L
[3]
  susceptibility of wild type Arabidopsis: quite susceptible
